Experimental data published in patent US11065249B2, “Diacylglycerol acyl transferase 2 inhibitor” (Pfizer Inc., priority 2019, dated 2021).
Counter-ions that a name gives are not always drawn.

Tests used:
human DGAT2 (hDGAT2) = human DGAT2 (hDGAT2) (Homo sapiens (Human), UniProt Q96PD7); assay: In vitro DGAT2 assay, determination of IC50 values for DGAT2 inhibitors; type: biochemical; details: inhibition of DGAT2, hDGAT2 membrane fractions; geometric mean
Procedure: Recombinant baculovirus for the FLAG-tagged hDGAT2 was generated in SF9 insect cells using Bac-to-Bac baculovirus expression system (Invitrogen) according to the manufacturer's protocol. For the expression of hDGAT2, SF9 cells (20 L) grown in Sf900II media were infected with hDGAT2 baculovirus at a multiplicity of infection of 1 in a Wave Bioreactor System 20/50P wave bag (GE Healthcare). After 40 hours of infection, the cells were then harvested by centrifugation at 5,000×g. The cell pellets were washed by resuspending in phosphate buffered saline (PBS) and collected by centrifugation at 5,000×g. The cell paste was flash frozen in liquid N2 and stored at −80° C. until needed. All operations below were at 4° C. unless otherwise noted. The cells were resuspended in lysis buffer (50 mM Tris-HCl, pH 8.0, 250 mM sucrose) including 1 mM ethylenediaminetetraacetic acid (EDTA) and the complete protease inhibitor cocktail (Roche Diagnostics) at a ratio of 3 mL buffer per 1 g cell paste. The cells were lysed by dounce homogenizer. The cell debris was removed by centrifugation at 1,000×g for 20 min, and the supernatant was centrifuged at 100,000×g for 1 hour. The resulting pellet was rinsed three times by filling ultracentrifuge tubes to the top with ice cold PBS before decanting. The washed pellet was resuspended with gentle stirring for 1 hour in lysis buffer containing 8 mM 3-[(3-cholamidopropyl)dimethylammonio]-1-propanesulfonate (CHAPS) at a ratio of 1 mL buffer per 1 g of original cell paste and centrifuged again at 100,000×g for 1 hour. The resulting supernatant was aliquotted, flash frozen in liquid N2, and stored at −80° C. until use.
To 1 μL of compounds dissolved in 100% DMSO and spotted at the bottom of each well, 5 μL of 0.04% bovine serum albumin (BSA) (fatty acid free, Sigma Aldrich) was added and the mixture was incubated at room temperature for 15 minutes. hDGAT2 membrane fractions were diluted in 100 mM Hepes-NaOH, pH 7.4, 20 mM MgCl2 containing 200 nM methyl arachidonyl fluorophosphonate (Cayman Chemical, dried from ethyl acetate stock solution under argon gas and dissolved in DMSO as 5 mM stock). 10 μL of this enzyme working solution was added to the plates and incubation continued for 2 hours at room temperature. DGAT2 reactions were initiated by the addition of 4 μL of substrates containing 30 μM [1-^14C]decanoyl-CoA (custom-synthesized by Perkin Elmer, 50 mCi/mmol) and 125 μM 1,2-didecanoyl-sn-glycerol (Avanti Polar Lipids) dissolved in 12.5% acetone. The reaction mixtures were incubated at room temperature for 40 min and the reactions were stopped by addition of 5 μL of 1% H3PO4. After the addition of 45 μL MicroScint-E (Perkin-Elmer), plates were sealed with Top Seal-A covers (Perkin-Elmer) and phase partitioning of substrates and products was achieved using a HT-91100 microplate orbital shaker (Big Bear Automation, Santa Clara, Calif.). Plates were centrifuged at 2,000×g for 1 minute in an Allegra 6R Centrifuge (Beckman Coulter) and then were sealed again with fresh covers before reading in a 1450 Microbeta Wallac Trilux Scintillation Counter (Perkin Elmer). DGAT2 activity was measured by quantifying the generated product [^14C]tridecanoylglycerol in the upper organic phase.
Inhibitors were tested at eleven different concentrations to generate IC50 values for each compound.

[1] = Determination of pKa (capillary electrophoresis, Analiza); type: physicochemical; details: most basic pKa, mean
[2] = High throughput determination of intrinsic clearance in human hepatocytes; type: in vitro ADME; details: human, pooled cryopreserved human hepatocytes (suspension), high throughput human hepatocyte assay, 1 μM test compound; mean +/− Std Dev
Procedure: (§1) The incubation was carried out at 37° C. […] The samples were centrifuged (Eppendorf, Hauppauge, N.Y.) at 3000 rpm for 5 min at 4° C.

[3] = Intrinsic clearance in human liver microsomes; type: in vitro ADME; details: 1 μM test compound, mean +/− STD Dev; for microsomal CLint at 1 μM: human, pooled human liver microsomes, pH 7.4, human liver microsome assay; for CLint (+/−STD Dev): human liver microsome assay
Procedure: The incubations were conducted at 37° C. […] (Sorvall R C 3C Plus, Thermo Scientific, Waltham, Mass.).

human hepatocytes = assay: High throughput determination of intrinsic clearance in human hepatocytes; type: in vitro ADME; details: high throughput human hepatocyte assay, 1 μM test compound; mean +/− Std Dev
Procedure: as §1

Chain of human DGAT2 (hDGAT2) (Q96PD7 whole entry): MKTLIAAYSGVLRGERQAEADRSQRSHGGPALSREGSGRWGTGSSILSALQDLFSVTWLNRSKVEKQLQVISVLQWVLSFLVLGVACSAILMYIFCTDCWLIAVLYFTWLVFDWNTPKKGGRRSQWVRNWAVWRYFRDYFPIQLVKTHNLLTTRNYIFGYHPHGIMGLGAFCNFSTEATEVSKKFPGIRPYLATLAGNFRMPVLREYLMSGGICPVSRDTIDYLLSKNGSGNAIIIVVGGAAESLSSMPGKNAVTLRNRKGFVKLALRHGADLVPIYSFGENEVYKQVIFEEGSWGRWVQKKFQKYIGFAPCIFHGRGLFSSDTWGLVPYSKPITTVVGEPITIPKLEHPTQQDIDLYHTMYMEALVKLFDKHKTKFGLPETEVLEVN

Compound | IC50 (human DGAT2 (hDGAT2)) | Basic pKa [1] | hepatocyte CLint at 1 μM [2] | microsomal CLint at 1 μM [3] | CLint (+/−Std Dev) (human hepatocytes) | CLint (+/−STD Dev) [3] | pKa [1] | CLint (+/−STD Dev) ([3]; trifluoroacetate salt)
CCOc1cccnc1Oc1cncc(-c2ncc(C(=O)NC3(C)CCS(=O)(=O)C3)cn2)c1 (stereo not shown) [WO2018033832 Ex. 3.1] |  |  |  |  | 9.3 +/− 1.1 μL/min/10^6 cells | 30 µL/min/mg |  | 
CCOc1cccnc1Oc1cncc(-c2ncc(C(=O)N[C@@H]3CNCC(F)(F)C3)cn2)c1 (single isomer, unassigned) [Example 19, N-[(3S)-5,5-difluoropiperidin-3-yl]-2-{5-[(3-ethoxypyridin-2-yl)oxy]pyridin-3-yl}pyrimidine-5-carboxamide or N-[(3R)-5,5-difluoropiperidin-3-yl]-2-{5-[(3-ethoxypyridin-2-yl)oxy]pyridin-3-yl}pyrimidine-5-carboxamide] | 0.24 µM | 5.2 |  |  |  | 34 ± 1.9 µL/min/mg |  | 
CCOc1cccnc1Oc1cncc(-c2ncc(C(=O)N[C@@H]3CNCC[C@H]3C)cn2)c1 (racemic) [Example 24, rac-2-{5-[(3-ethoxypyridin-2-yl)oxy]pyridin-3-yl}-N-[(3R,4S)-4-methylpiperidin-3-yl]pyrimidine-5-carboxamide, trifluoroacetate salt] | 16 µM |  |  | < 8 µL/min/mg |  |  |  | 
CCOc1cccnc1Oc1cncc(-c2ncc(C(=O)N[C@H]3CNCCC3(F)F)cn2)c1 (single isomer, unassigned) [Example 16, N-[(3S)-4,4-difluoropiperidin-3-yl]-2-{5-[(3-ethoxypyridin-2-yl)oxy]pyridin-3-yl}pyrimidine-5-carboxamide, trifluoroacetate salt or N-[(3R)-4,4-difluoropiperidin-3-yl]-2-{5-[(3-ethoxypyridin-2-yl)oxy]pyridin-3-yl}pyrimidine-5-carboxamide, trifluoroacetate salt] | 0.48 µM |  |  |  |  |  | 6.4 | 17 µL/min/mg
CCOc1cccnc1Oc1cncc(-c2ncc(C(=O)NC3CCS(=O)(=O)C3)cn2)c1 (stereo not shown) [WO2018033832 Ex. 3.3] |  |  |  |  | 5.1 +/− 0.69 μL/min/10^6 cells | <8 µL/min/mg |  | 
CCOc1cccnc1Oc1cncc(-c2ncc(C(=O)N[C@@H]3CNCC[C@@H]3F)cn2)c1 [Example 3, 2-{5-[(3-Ethoxypyridin-2-yl)oxy]pyridin-3-yl}-N-[(3R,4S)-4-fluoropiperidin-3-yl]pyrimidine-5-carboxamide, bis(trifluoroacetate) salt] |  | 8.1 |  |  | <1.9 +/− 0.35 μL/min/10^6 cells | <7 µL/min/mg |  | 
CCOc1cc(F)cnc1Oc1cncc(-c2ncc(C(=O)N[C@@H]3CNCC[C@@H]3F)cn2)c1 [Example 1, 2-{5-[(3-Ethoxy-5-fluoropyridin-2-yl)oxy]pyridin-3-yl}-N-[(3R,4S)-4-fluoropiperidin-3-yl]pyrimidine-5-carboxamide, bis(trifluoroacetate) salt] | 0.0058 µM | 7.7 |  |  | <2.7 +/− 0.72 μL/min/10^6 cells | <7 µL/min/mg |  | 
CCOc1cc(F)cnc1Oc1cncc(-c2ncc(C(=O)N[C@H]3CCOC3)cn2)c1 [WO2018033832 Ex. 8] |  |  |  |  | 9.3 +/− 0.52 μL/min/10^6 cells | <9.6 µL/min/mg |  | 
CCOc1cccnc1Oc1cncc(-c2ncc(C(=O)N[C@H]3CNCC[C@H]3C)cn2)c1 (racemic) [Example 20, rac-2-{5-[(3-ethoxypyridin-2-yl)oxy]pyridin-3-yl}-N-[(3R,4R)-4-methylpiperidin-3-yl]pyrimidine-5-carboxamide, trifluoroacetate salt] | 2.1 µM |  |  | 8.9 µL/min/mg |  |  |  | 
CCOc1cccnc1Oc1cncc(-c2ncc(C(=O)NC3CNCC(F)(F)C3)cn2)c1 (stereo not shown) [Example 17, N-(5,5-difluoropiperidin-3-yl)-2-{5-[(3-ethoxypyridin-2-yl)oxy]pyridin-3-yl}pyrimidine-5-carboxamide] |  |  | 8.3 µL/min/1e6 cells | 23 µL/min/mg |  |  | 5.4 | 

Results, then the compound that gave them:

IC50 (human DGAT2 (hDGAT2)) | Basic pKa [1] | hepatocyte CLint at 1 μM [2] | microsomal CLint at 1 μM [3] | CLint (+/−Std Dev) (human hepatocytes) | CLint (+/−STD Dev) [3] | pKa [1] | CLint (+/−STD Dev) ([3]; trifluoroacetate salt) | Compound
0.039 µM | 4.7 | 27 µL/min/1e6 cells | 270 µL/min/mg |  |  |  |  | CCOc1cccnc1Oc1cncc(-c2ncc(C(=O)NC3CCC(C(F)(F)F)NC3)cn2)c1 (single isomer, unassigned; ent-1) [Example 10, 2-{5-[(3-ethoxypyridin-2-yl)oxy]pyridin-3-yl}-N-[6-(trifluoromethyl)piperidin-3-yl]pyrimidine-5-carboxamide, trifluoroacetate salt, ENT-1]
0.0044 µM |  |  |  |  | >290 µL/min/mg | 4.5 |  | CCOc1cccnc1Oc1cncc(-c2ncc(C(=O)NC3CCC(C(F)(F)F)NC3)cn2)c1 (single isomer, unassigned; ent-2) [Example 11, 2-{5-[(3-ethoxypyridin-2-yl)oxy]pyridin-3-yl}-N-[6-(trifluoromethyl)piperidin-3-yl]pyrimidine-5-carboxamide, trifluoroacetate salt, ENT-2]
0.019 µM |  | 54 µL/min/1e6 cells | > 290 µL/min/mg |  |  | 4 |  | CCOc1cccnc1Oc1cncc(-c2ncc(C(=O)N[C@H]3CC[C@H](C(F)(F)F)NC3)cn2)c1 (racemic) [Example 9, rac-2-{5-[(3-ethoxypyridin-2-yl)oxy]pyridin-3-yl}-N-[(3R,6S)-6-(trifluoromethyl)piperidin-3-yl]pyrimidine-5-carboxamide or rac-2-{5-[(3-ethoxypyridin-2-yl)oxy]pyridin-3-yl}-N-[(3R,6R)-6-(trifluoromethyl)piperidin-3-yl]pyrimidine-5-carboxamide]
0.65 µM |  |  | < 14 µL/min/mg |  |  | 5.3 |  | CCOc1cccnc1Oc1cncc(-c2ncc(C(=O)N[C@H]3CCC(C(F)(F)F)NC3)cn2)c1 (single isomer, unassigned) [Example 8, rac-2-{5-[(3-ethoxypyridin-2-yl)oxy]pyridin-3-yl}-N-[(3R,6S)-6-(trifluoromethyl)piperidin-3-yl]pyrimidine-5-carboxamide or rac-2-{5-[(3-ethoxypyridin-2-yl)oxy]pyridin-3-yl}-N-[(3R,6R)-6-(trifluoromethyl)piperidin-3-yl]pyrimidine-5-carboxamide]
